Data taken from ChEMBL document CHEMBL1201862, “PubChem BioAssay data set” (2004).
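48-hour exposure; five concentrations; linearly interpolated endpoints. GI50 is the concentration that inhibits growth by half.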 Calls of active or inactive are those of the source. Rule as the data show it: active = GI50 up to about 1.1 µM and inactive = higher.

Columns and labels:
Assay in all cases: growth of human tumour cells (NCI), 48 h
TK-10 = tested on: TK-10
OVCAR-8 = tested on: OVCAR-8
HT-29 = tested on: HT-29
A549 = tested on: A549
HOP-92 = tested on: HOP-92
NCI-H522 = tested on: NCI-H522
SF-268 = tested on: SF-268
MDA-N = tested on: MDA-N
NCI-H226 = tested on: NCI-H226
LOX IMVI = tested on: LOX IMVI
NCI/ADR-RES = tested on: NCI/ADR-RES
HCT-15 = tested on: HCT-15
DU-145 = tested on: DU-145
SW-620 = tested on: SW-620
PC-3 = tested on: PC-3
NCI-H460 = tested on: NCI-H460
MDA-MB-435 = tested on: MDA-MB-435
SK-OV-3 = tested on: SK-OV-3
CAKI-1 = tested on: CAKI-1
A498 = tested on: A498
NCI-H23 = tested on: NCI-H23
T47D = tested on: T47D
EKVX = tested on: EKVX
KM12 = tested on: KM12
HOP-62 = tested on: HOP-62
SF-539 = tested on: SF-539
COLO 205 = tested on: COLO 205
SK-MEL-28 = tested on: SK-MEL-28
OVCAR-4 = tested on: OVCAR-4
K562 = tested on: K562
SR = tested on: SR
SNB-75 = tested on: SNB-75
IGROV-1 = tested on: IGROV-1
Hs-578T = tested on: Hs-578T
SK-MEL-2 = tested on: SK-MEL-2
OVCAR-5 = tested on: OVCAR-5
ACHN = tested on: ACHN
SNB-19 = tested on: SNB-19
UACC-257 = tested on: UACC-257
UACC-62 = tested on: UACC-62
U-251 = tested on: U-251
MCF7 = tested on: MCF7
OVCAR-3 = tested on: OVCAR-3
SF-295 = tested on: SF-295
M14 = tested on: M14
HL-60 = tested on: HL-60
SN12C = tested on: SN12C
HCT-116 = tested on: HCT-116
Malme-3M = tested on: Malme-3M
SK-MEL-5 = tested on: SK-MEL-5
786-0 = tested on: 786-0

CC1(C)OP(=O)(c2ccccc2)C=C1Sc1ccc([N+](=O)[O-])cc1[N+](=O)[O-] (stereo unspecified) was tested, and the GI50 (TK-10) was > 100 µM (inactive), the GI50 (OVCAR-8) was 62.1 µM (inactive) and the GI50 (HT-29) was 45.6 µM (inactive). For the same compound, the GI50 (A549) was > 100 µM (inactive), the GI50 (HOP-92) was 91.4 µM (inactive) and the GI50 (NCI-H522) was 19 µM (inactive). The GI50 (SF-268) was 52.1 µM (inactive), the GI50 (MDA-N) was 71.8 µM (inactive) and the GI50 (NCI-H226) was > 100 µM (inactive). The GI50 (LOX IMVI) was 36.6 µM (inactive), the GI50 (NCI/ADR-RES) was 80.5 µM (inactive) and the GI50 (HCT-15) was 65.5 µM. The GI50 (DU-145) was 74.6 µM (inactive), the GI50 (SW-620) was 65.5 µM (inactive) and the GI50 (PC-3) was 65.3 µM (inactive). The GI50 (NCI-H460) was > 100 µM (inactive), the GI50 (MDA-MB-435) was 70 µM (inactive) and the GI50 (SK-OV-3) was > 100 µM (inactive). For the same compound, the GI50 (CAKI-1) was > 100 µM (inactive), the GI50 (A498) was > 100 µM (inactive) and the GI50 (NCI-H23) was 77.6 µM (inactive). For the same compound, the GI50 (T47D) was > 100 µM (inactive), the GI50 (EKVX) was > 100 µM (inactive) and the GI50 (KM12) was 98.2 µM (inactive). For the same compound, the GI50 (HOP-62) was > 100 µM (inactive), the GI50 (SF-539) was 33.7 µM (inactive) and the GI50 (COLO 205) was > 100 µM (inactive). The GI50 (SK-MEL-28) was 85.1 µM (inactive), the GI50 (OVCAR-4) was 29.7 µM (inactive) and the GI50 (K562) was 27 µM (inactive). The GI50 (SR) was 17.3 µM (inactive), the GI50 (SNB-75) was > 100 µM (inactive) and the GI50 (IGROV-1) was > 100 µM (inactive). For the same compound, the GI50 (Hs-578T) was > 100 µM (inactive), the GI50 (SK-MEL-2) was > 100 µM (inactive) and the GI50 (OVCAR-5) was > 100 µM (inactive). The GI50 (ACHN) was > 100 µM (inactive), the GI50 (SNB-19) was > 100 µM (inactive) and the GI50 (UACC-257) was > 100 µM (inactive). For the same compound, the GI50 (UACC-62) was 35 µM (inactive), the GI50 (U-251) was 54.7 µM (inactive) and the GI50 (MCF7) was 41.5 µM (inactive). For the same compound, the GI50 (OVCAR-3) was 30.4 µM (inactive), the GI50 (SF-295) was 95.9 µM (inactive) and the GI50 (M14) was 63.8 µM (inactive). For the same compound, the GI50 (HL-60) was 15.9 µM (inactive), the GI50 (SN12C) was 45.9 µM (inactive) and the GI50 (HCT-116) was 36.6 µM (inactive). For the same compound, the GI50 (Malme-3M) was 78.3 µM (inactive), the GI50 (SK-MEL-5) was 42.7 µM (inactive) and the GI50 (786-0) was 38.6 µM (inactive).
